Laboratory results from patent US9617256B2 (priority 2007, dated 2017).
≈ marks a conversion by molar mass, not a printed value.

How the values were obtained:
AECO001 HSA AGP = assay: MIC broth microdilution, AECO001 HSA AGP; type: cell-based, E. coli; conditions: for MIC: Escherichia coli
Procedure, shortened: (§1)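 Strains were grown overnight at 35° C. on Mueller-Hinton agar, suspended to 0.5 McFarland and diluted to a final 3×10^5–7×10^5 CFU/mL. They were then exposed to 2-fold serial drug dilutions in cation-adjusted Mueller-Hinton broth and incubated 18-24 hours at 35° C.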

[1] = system: ASAU001 (laboratory strain of S. aureus, ATCC29213); assay: MIC broth microdilution, ASAU001; type: cell-based; conditions: for MIC: Staphylococcus aureus, ATCC29213, read-out: MIC ASAU001
Procedure, shortened: as §1

[2] = system: APAE006 in the presence of 8 micrograms per milliliter of polymyxin B nonapeptide; type: cell-based, P. aeruginosa; conditions: in the presence of 8 micrograms per milliliter of polymyxin B nonapeptide
Procedure, shortened: (§2)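 Growth inhibition was scored by CLSI broth microdilution using cation-adjusted Mueller-Hinton broth and a final inoculum between 3×10^5 and 7×10^5 CFU/mL, incubated 18-24 hours at 35° C.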

[3] = system: APAE006 (strain of P. aeruginosa in which all efflux pumps are inactivated); assay: microbe, parasite or virus in culture; type: cell-based; conditions: for MIC: Pseudomonas aeruginosa, read-out: MIC APAE006, P. aeruginosa, all efflux pumps inactivated
Procedure, shortened: as §2

[4] = system: AECO063 (ATCC25922 bearing an acrAB mutation); assay: microbe, parasite or virus in culture; type: cell-based, E. coli; conditions: for MIC: Escherichia coli, ATCC25922, read-out: MIC AECO063
Procedure, shortened: as §1

APAE001 (ATCC27853) = assay: MIC broth microdilution, APAE001; type: cell-based, P. aeruginosa; conditions: for MIC: Pseudomonas aeruginosa, ATCC27853, read-out: MIC APAE001, APAE001 is ATCC27853
Procedure, shortened: as §1

[5] = system: AABA1060 (clinical isolate of Acinetobacter baumannii); assay: MIC broth microdilution, AABA1060; type: cell-based; conditions: for MIC: Acinetobacter baumannii, read-out: MIC AABA1060
Procedure, shortened: as §1

AECO001 (ATCC25922) = assay: MIC broth microdilution, AECO001; type: cell-based, E. coli; conditions: for MIC: Escherichia coli, ATCC25922, read-out: MIC AECO001
Procedure, shortened: as §1

| Structure (SMILES) | MIC (AECO001 HSA AGP) | MIC [1] | MIC APAE006 + PMBN [2] | MIC [3] | MIC [4] | MIC (APAE001 (ATCC27853)) | MIC [5] | MIC (AECO001 (ATCC25922)) | MIC AECO001 HSA AGP (AECO001 HSA AGP) | MIC ASAU001 ([1]; S. aureus ATCC29213) | MIC APAE006 ([3]; P. aeruginosa, all efflux pumps inactivated) | MIC AECO063 ([4]; ATCC25922 bearing an acrAB mutation) | MIC APAE001 (APAE001 (ATCC27853); APAE001 is ATCC27853) | MIC AABA1060 ([5]; clinical isolate of Acinetobacter baumannii) | MIC AECO001 (AECO001 (ATCC25922); AECO001 is ATCC25922) |
| --- | --- | --- | --- | --- | --- | --- | --- | --- | --- | --- | --- | --- | --- | --- | --- |
| COC(=O)[C@@H](NC(=O)c1ccc(C#C/C(F)=C/c2ccc(CN3CCOCC3)cc2)cc1)[C@@H](C)O [Example 109-2, (2S,3R)-methyl 2-(4-((Z)-3-fluoro-4-(4-(morpholinomethyl)phenyl)but-3-en-1-ynyl)benzamido)-3-hydroxybutanoate] | 2 to 16 µg/mL (≈ 4.16 to 33.3 µM) | 16 to 64 µg/mL (≈ 33.3 to 133 µM) | A (MIC's of 2.0 μg/mL or less = A) | < 2 µg/mL | < 2 µg/mL | 2 to 16 µg/mL (≈ 4.16 to 33.3 µM) | 2 to 16 µg/mL (≈ 4.16 to 33.3 µM) | < 2 µg/mL |  |  |  |  |  |  |  |
| C[C@@H](N)[C@H](NC(=O)c1ccc(C#C/C=C/c2ccc(CNC3CC3)cc2)cc1)C(=O)NO [Example 102-2] | 2 to 16 µg/mL (≈ 4.62 to 37 µM) | 16 to 64 µg/mL (≈ 37 to 148 µM) | A (MIC's of 2.0 μg/mL or less = A) | < 2 µg/mL | < 2 µg/mL | 2 to 16 µg/mL (≈ 4.62 to 37 µM) | 2 to 16 µg/mL (≈ 4.62 to 37 µM) | < 2 µg/mL |  |  |  |  |  |  |  |
| O=C(CNC1CC1)NC[C@H](NC(=O)c1ccc(C#C/C=C/c2ccc(CN3CCOCC3)cc2)cc1)C(=O)NO [Example 100-1, N—[(S)-2-(2-Cyclopropylamino-acetylamino)-1-hydroxycarbamoyl-ethyl]-4-[(E)-4-(4-morpholin-4-ylmethyl-phenyl)-but-3-en-1-ynyl]-benzamide] | 2 to 16 µg/mL (≈ 3.67 to 29.3 µM) | 16 to 64 µg/mL (≈ 29.3 to 117 µM) | A (MIC's of 2.0 μg/mL or less = A) | < 2 µg/mL | < 2 µg/mL | 2 to 16 µg/mL (≈ 3.67 to 29.3 µM) | 16 to 64 µg/mL (≈ 29.3 to 117 µM) | < 2 µg/mL |  |  |  |  |  |  |  |
| CC(C)(N)C(NC(=O)c1ccc(C#Cc2ccc(CNC3CC3)cc2)cc1)C(=O)NO (centres unmarked) [Example 137-6] | 2 to 16 µg/mL (≈ 4.76 to 38 µM) | 16 to 64 µg/mL (≈ 38 to 152 µM) | A (MIC's of 2.0 μg/mL or less = A) | < 2 µg/mL | < 2 µg/mL | < 2 µg/mL | 2 to 16 µg/mL (≈ 4.76 to 38 µM) | < 2 µg/mL |  |  |  |  |  |  |  |
| C[C@@H](N)[C@H](NC(=O)c1ccc(C#Cc2ccc(CNC3CCCC3)cc2)cc1)C(=O)NO [Example 118-6] | 2 to 16 µg/mL (≈ 4.6 to 36.8 µM) | 16 to 64 µg/mL (≈ 36.8 to 147 µM) | A (MIC's of 2.0 μg/mL or less = A) | < 2 µg/mL | < 2 µg/mL | < 2 µg/mL | 16 to 64 µg/mL (≈ 36.8 to 147 µM) | 2 to 16 µg/mL (≈ 4.6 to 36.8 µM) |  |  |  |  |  |  |  |
| C[C@@H](N)[C@H](NC(=O)c1ccc(C#CC#Cc2ccc(F)cc2)cc1)C(=O)NO [Example 82-12] | 2 to 16 µg/mL (≈ 5.27 to 42.2 µM) | 16 to 64 µg/mL (≈ 42.2 to 169 µM) | A (MIC's of 2.0 μg/mL or less = A) | < 2 µg/mL | < 2 µg/mL | 2 to 16 µg/mL (≈ 5.27 to 42.2 µM) | 2 to 16 µg/mL (≈ 5.27 to 42.2 µM) | < 2 µg/mL |  |  |  |  |  |  |  |
| COC(C)[C@H](NC(=O)c1ccc(/C=C/C#Cc2ccc(CN3CCOCC3)cc2)cc1)C(=O)NO (some centres unmarked) [Example 110-6] | 2 to 16 µg/mL (≈ 4.19 to 33.5 µM) | > 64 µg/mL | A (MIC's of 2.0 μg/mL or less = A) | < 2 µg/mL | < 2 µg/mL | 2 to 16 µg/mL (≈ 4.19 to 33.5 µM) | 2 to 16 µg/mL (≈ 4.19 to 33.5 µM) | < 2 µg/mL |  |  |  |  |  |  |  |
| CC(C)[C@H](NC(=O)c1ccc(C#C/C=C/c2ccc(CN3CCOCC3)cc2)cc1)C(=O)NO [Example 96-3] | 2 to 16 µg/mL (≈ 4.33 to 34.7 µM) | 16 to 64 µg/mL (≈ 34.7 to 139 µM) | A (MIC's of 2.0 μg/mL or less = A) | < 2 µg/mL | < 2 µg/mL | 2 to 16 µg/mL (≈ 4.33 to 34.7 µM) | 2 to 16 µg/mL (≈ 4.33 to 34.7 µM) | < 2 µg/mL |  |  |  |  |  |  |  |
| O=C(N[C@H](C(=O)NO)C1CCS(=O)(=O)CC1)c1ccc(C#Cc2ccc(CN3CCOCC3)cc2)cc1 [Example 67-9] | 16 to 64 µg/mL (≈ 30.4 to 122 µM) | > 64 µg/mL | A (MIC's of 2.0 μg/mL or less = A) | < 2 µg/mL | < 2 µg/mL | 16 to 64 µg/mL (≈ 30.4 to 122 µM) | > 64 µg/mL | 2 to 16 µg/mL (≈ 3.8 to 30.4 µM) |  |  |  |  |  |  |  |
| O=CN(O)CC(CO)NC(=O)c1ccc(C#Cc2ccc(CN3CCOCC3)cc2)cc1 (centres unmarked) [Example 128-1, N-[2-(Formyl-hydroxy-amino)-1-hydroxymethyl-ethyl]-4-(4-morpholin-4-yl-methyl-phenylethynyl)-benzamide] |  |  | C (MIC's of greater than 16.0 μg/mL to 64.0 μg/mL = C) |  |  |  |  |  | C (MIC's of greater than 16.0 μg/mL to 64.0 μg/mL = C) | C (MIC's of greater than 16.0 μg/mL to 64.0 μg/mL = C) | C (MIC's of greater than 16.0 μg/mL to 64.0 μg/mL = C) | C (MIC's of greater than 16.0 μg/mL to 64.0 μg/mL = C) | C (MIC's of greater than 16.0 μg/mL to 64.0 μg/mL = C) | C (MIC's of greater than 16.0 μg/mL to 64.0 μg/mL = C) | C (MIC's of greater than 16.0 μg/mL to 64.0 μg/mL = C) |
| C[C@@H](N)[C@H](NC(=O)c1ccc(C#Cc2ccc(CCN)cc2)cc1)C(=O)NO [Example 137-4] | > 64 µg/mL | > 64 µg/mL | C (MIC's of greater than 16.0 μg/mL to 64.0 μg/mL = C) | 16 to 64 µg/mL (≈ 42.1 to 168 µM) | 16 to 64 µg/mL (≈ 42.1 to 168 µM) | > 64 µg/mL | > 64 µg/mL | > 64 µg/mL |  |  |  |  |  |  |  |
| C[C@@H](O)[C@H](NC(=O)c1ccc(C#Cc2ccc(O)cc2)cc1)C(=O)NO [Example 133-12] | 2 to 16 µg/mL (≈ 5.64 to 45.2 µM) | 16 to 64 µg/mL (≈ 45.2 to 181 µM) | A (MIC's of 2.0 μg/mL or less = A) | < 2 µg/mL | < 2 µg/mL | < 2 µg/mL | 16 to 64 µg/mL (≈ 45.2 to 181 µM) | < 2 µg/mL |  |  |  |  |  |  |  |
| C[C@@H](N)[C@H](NC(=O)c1ccc(C#Cc2ccc(CNC(=N)N)cc2)cc1)C(=O)NO [Example 131-3, N-((1S,2R)-2-Amino-1-hydroxycarbamoyl-propyl)-4-(4-guanidinomethyl-phenylethynyl)-benzamide] | 16 to 64 µg/mL (≈ 39.2 to 157 µM) | 16 to 64 µg/mL (≈ 39.2 to 157 µM) | A (MIC's of 2.0 μg/mL or less = A) | < 2 µg/mL | 16 to 64 µg/mL (≈ 39.2 to 157 µM) | 2 to 16 µg/mL (≈ 4.9 to 39.2 µM) | 16 to 64 µg/mL (≈ 39.2 to 157 µM) | 16 to 64 µg/mL (≈ 39.2 to 157 µM) |  |  |  |  |  |  |  |
| CC(C)C(C(=O)NO)C(=O)Nc1ccc(C#Cc2ccc(CN3CCOCC3)cc2)cc1 (centres unmarked) [Example 60-5, N-Hydroxy-2-isopropyl-N′-[4-(4-morpholin-4-ylmethyl-phenylethynyl)-phenyl]-malonamide] | > 64 µg/mL | > 64 µg/mL | B (MIC's of greater than 2.0 μg/mL to 16.0 μg/mL = B) | 16 to 64 µg/mL (≈ 36.7 to 147 µM) | 16 to 64 µg/mL (≈ 36.7 to 147 µM) | > 64 µg/mL | > 64 µg/mL | 16 to 64 µg/mL (≈ 36.7 to 147 µM) |  |  |  |  |  |  |  |
| C[C@@H](N)[C@H](NC(=O)c1ccc(/C=C/C#Cc2ccc(CN3CCOCC3)cc2)cc1)C(=O)NO [Example 110-3] | 2 to 16 µg/mL (≈ 4.32 to 34.6 µM) | > 64 µg/mL | A (MIC's of 2.0 μg/mL or less = A) | < 2 µg/mL | < 2 µg/mL | < 2 µg/mL | 2 to 16 µg/mL (≈ 4.32 to 34.6 µM) | < 2 µg/mL |  |  |  |  |  |  |  |
| O=C(N[C@H](C(=O)NO)C1CCNCC1)c1ccc(C#Cc2ccc(CN3CCOCC3)cc2)cc1 [Example 65-6, N—((S)-hydroxycarbamoyl-piperidin-4-yl-methyl)-4-(4-morpholin-4-ylmethyl-phenylethynyl)-benzamide] | > 64 µg/mL | > 64 µg/mL | A (MIC's of 2.0 μg/mL or less = A) | 2 to 16 µg/mL (≈ 4.2 to 33.6 µM) | 2 to 16 µg/mL (≈ 4.2 to 33.6 µM) | 16 to 64 µg/mL (≈ 33.6 to 134 µM) | 16 to 64 µg/mL (≈ 33.6 to 134 µM) | 16 to 64 µg/mL (≈ 33.6 to 134 µM) |  |  |  |  |  |  |  |
